Assay results reported in patent publication US12435046B2, “Alkynyl quinazoline compounds” (Black Diamond Therapeutics, Inc., priority 2019, dated 2025).
pIC50: −log10 of the molar value.

Key:
GBM tumors = details: phase 2 study, GBM patients, erlotinib in combination with radiation and temozolomide; cited from earlier work
EGFR SVD = target: T1, EGFR SVD (Homo sapiens, UniProt P00533, INS770SVD); experiment: BaF3 cell proliferation assay (CellTiterGlo), EGFR SVD; assay type: cell-based; details: Table A; BaF3 cells, 3 days
T1 construct: expressed in transfected cells; host or cells: BaF3 (murine pro-B) cells, retroviral transduction with pMXs-IRES-Blasticidin
T1 sequence (P00533 with tags, fused parts or gaps INS770SVD): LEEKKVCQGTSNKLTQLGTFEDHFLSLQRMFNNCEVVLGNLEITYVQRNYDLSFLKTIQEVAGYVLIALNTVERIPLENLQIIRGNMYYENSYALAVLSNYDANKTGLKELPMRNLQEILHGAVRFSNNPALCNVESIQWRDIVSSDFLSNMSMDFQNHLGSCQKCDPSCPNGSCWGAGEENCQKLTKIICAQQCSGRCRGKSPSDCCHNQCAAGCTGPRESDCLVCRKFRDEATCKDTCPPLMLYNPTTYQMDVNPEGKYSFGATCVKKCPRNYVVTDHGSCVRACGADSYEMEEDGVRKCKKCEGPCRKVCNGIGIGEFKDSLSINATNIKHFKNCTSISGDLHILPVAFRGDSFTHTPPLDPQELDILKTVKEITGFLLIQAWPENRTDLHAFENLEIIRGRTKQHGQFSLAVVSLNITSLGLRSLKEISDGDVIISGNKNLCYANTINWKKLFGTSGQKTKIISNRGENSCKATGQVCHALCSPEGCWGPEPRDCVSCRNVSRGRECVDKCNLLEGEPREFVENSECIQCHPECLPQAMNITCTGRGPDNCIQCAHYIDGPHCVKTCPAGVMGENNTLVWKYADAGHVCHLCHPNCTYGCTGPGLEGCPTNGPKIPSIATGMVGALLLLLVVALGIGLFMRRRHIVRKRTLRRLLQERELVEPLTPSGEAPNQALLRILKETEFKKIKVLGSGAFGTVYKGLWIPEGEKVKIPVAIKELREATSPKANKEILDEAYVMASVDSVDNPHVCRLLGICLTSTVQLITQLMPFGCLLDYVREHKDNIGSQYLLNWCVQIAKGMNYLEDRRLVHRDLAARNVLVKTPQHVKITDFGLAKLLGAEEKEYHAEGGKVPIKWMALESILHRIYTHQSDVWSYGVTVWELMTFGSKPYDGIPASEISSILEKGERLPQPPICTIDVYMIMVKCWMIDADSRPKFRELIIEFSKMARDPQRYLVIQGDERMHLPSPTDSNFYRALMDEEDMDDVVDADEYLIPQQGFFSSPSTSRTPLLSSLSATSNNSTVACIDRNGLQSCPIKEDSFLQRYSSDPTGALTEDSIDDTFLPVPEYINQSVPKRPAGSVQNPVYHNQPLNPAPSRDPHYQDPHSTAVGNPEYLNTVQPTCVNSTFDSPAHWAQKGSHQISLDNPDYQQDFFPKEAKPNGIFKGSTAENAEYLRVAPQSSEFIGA
Experimental: (§1) Retroviral Production: EGFR mutants were subcloned into pMXs-IRES-Blasticidin (RTV-016, Cell Biolabs, San Diego, CA). Retroviral expression vector retrovirus was produced by transient transfection of HEK 293T cells with the retroviral EGFR mutant expression vector pMXs-IRES-Blasticidin (RTV-016, Cell Biolabs), pCMV-Gag-Pol vector and pCMV-VSV-G-Envelope vector. Briefly, HEK 293T/17 cells were plated in 100 mm collagen coated plate (354450, Corning Life Sciences, Tewksbury, MA) (4×10^5 per plate) and incubated overnight. The next day, retroviral plasmids (3 ng of EGFR mutant, 1.0 ng of pCMV-Gag-Pol and 0.5 ng pCMV-VSV-G) were mixed in 500 n1 of Optimem (31985, Life Technologies). The mixture was incubated at room temperature for 5 min and then added to Optimem containing transfection reagent Lipofectamine (11668, Invitrogen) and incubated for 20 minutes. Mixture was then added dropwise to HEK 293T cells. The next day the medium was replaced with fresh culture medium and retrovirus was harvested @ 24 and 48 hrs.
(§2) Generation of EGFR mutant stable cell lines: BaF3 cells (1.5E5 cells) were infected with 1 ml of viral supernatant supplemented with 8 ng/ml polybrene by centrifuging for 30 min at 1000 rpm. Cells were placed in a 37° C. incubator overnight. Cells were then spun for 5 minutes to pellet the cells. Supernatant was removed and cells re-infected a fresh 1 ml of viral supernatant supplemented with 8 ng/ml polybrene by centrifuging for 30 min at 1000 rpm. Cells were placed in 37° C. incubator overnight. Cells were then maintained in RPMI containing 10% Heat Inactivated FBS, 2% L-glutamine containing 10 ng/ml IL-3. After 48 hours cells were selected for retroviral infection in 10 […] for one week. Blasticidin resistant populations were washed twice in phosphate buffered saline before plating in media lacking IL-3 to select for IL-3 independent growth.
(§3) Assay for cell proliferation: BaF3 cell lines were resuspended at 1.3E5 c/ml in RPMI containing 10% Heat Inactivated FBS, 2% L-glutamine and 1% Pen/Strep and dispensed in triplicate (17.5E4 c/well) into 96 well plates. To determine the effect of drug on cell proliferation, cells incubated for 3 days in the presence of vehicle control or test drug at varying concentrations. Inhibition of cell growth was determined by luminescent quantification of intracellular ATP content using CellTiterGlo (Promega), according to the protocol provided by the manufacturer. Comparison of cell number on day 0 versus 72 hours post drug treatment was used to plot dose-response curves. The number of viable cells was determined and normalized to vehicle-treated controls. Inhibition of proliferation, relative to vehicle-treated controls was expressed as a fraction of 1 and graphed using PRISM® software (Graphpad Software, San Diego, CA). EC50 values were determined with the same application.

EGFR wt = target: T2, EGFR wt (Homo sapiens, UniProt P00533); experiment: BaF3 cell proliferation assay (CellTiterGlo), EGFR wt; assay type: cell-based; details: BaF3 cells, 3 days
T2 construct: expressed in transfected cells; host or cells: BaF3 (murine pro-B) cells, retroviral transduction with pMXs-IRES-Blasticidin
T2 sequence (P00533 25-1210): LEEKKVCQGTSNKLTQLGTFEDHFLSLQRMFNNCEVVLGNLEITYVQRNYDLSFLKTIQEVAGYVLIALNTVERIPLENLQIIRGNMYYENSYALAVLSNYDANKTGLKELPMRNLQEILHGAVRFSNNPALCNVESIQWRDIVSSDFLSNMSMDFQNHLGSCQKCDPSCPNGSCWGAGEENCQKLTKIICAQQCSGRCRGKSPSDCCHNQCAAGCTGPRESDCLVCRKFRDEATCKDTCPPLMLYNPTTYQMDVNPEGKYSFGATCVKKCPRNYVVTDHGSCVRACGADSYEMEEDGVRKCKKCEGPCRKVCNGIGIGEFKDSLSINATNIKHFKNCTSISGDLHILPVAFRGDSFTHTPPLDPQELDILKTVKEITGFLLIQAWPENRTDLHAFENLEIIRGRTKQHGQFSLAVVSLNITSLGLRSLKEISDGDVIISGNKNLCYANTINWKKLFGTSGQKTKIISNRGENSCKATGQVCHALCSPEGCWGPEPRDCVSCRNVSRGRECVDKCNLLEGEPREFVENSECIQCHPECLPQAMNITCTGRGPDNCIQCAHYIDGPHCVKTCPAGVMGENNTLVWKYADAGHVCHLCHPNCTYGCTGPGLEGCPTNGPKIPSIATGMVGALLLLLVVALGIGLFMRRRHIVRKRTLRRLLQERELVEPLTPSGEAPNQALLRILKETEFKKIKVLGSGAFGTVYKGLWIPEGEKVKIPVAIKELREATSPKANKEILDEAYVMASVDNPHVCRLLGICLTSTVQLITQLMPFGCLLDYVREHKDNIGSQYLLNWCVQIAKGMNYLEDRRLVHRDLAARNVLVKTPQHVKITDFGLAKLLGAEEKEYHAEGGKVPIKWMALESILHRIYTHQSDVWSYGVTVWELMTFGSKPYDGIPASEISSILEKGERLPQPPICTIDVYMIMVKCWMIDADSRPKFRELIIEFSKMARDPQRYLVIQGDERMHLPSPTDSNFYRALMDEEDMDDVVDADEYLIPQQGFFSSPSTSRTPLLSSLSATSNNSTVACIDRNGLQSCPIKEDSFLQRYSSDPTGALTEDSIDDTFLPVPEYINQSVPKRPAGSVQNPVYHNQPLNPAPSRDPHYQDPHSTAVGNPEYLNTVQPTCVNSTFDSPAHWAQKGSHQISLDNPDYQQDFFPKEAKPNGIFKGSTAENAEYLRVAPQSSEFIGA
Method in brief: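 BaF3 cells engineered by retroviral transduction to express EGFR and selected for blasticidin resistance and IL-3 independent growth were suspended at 1.3E5 c/ml in RPMI with 10% heat inactivated FBS, 2% L-glutamine and 1% Pen/Strep. They were plated in triplicate in 96 well plates and exposed to vehicle or varying drug concentrations for 3 days. Viability was quantified by CellTiterGlo ATP luminescence, normalized to vehicle, and curves fitted in PRISM.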

HER2 YVMA = target: T3, HER2 YVMA (Homo sapiens, UniProt P04626, INS775YVMA); experiment: BaF3 cell proliferation assay (CellTiterGlo), HER2 YVMA; assay type: cell-based; details: Table A; BaF3 cells, 3 days
T3 construct: expressed in transfected cells; host or cells: BaF3 (murine pro-B) cells
T3 sequence (P04626 with tags, fused parts or gaps INS775YVMA): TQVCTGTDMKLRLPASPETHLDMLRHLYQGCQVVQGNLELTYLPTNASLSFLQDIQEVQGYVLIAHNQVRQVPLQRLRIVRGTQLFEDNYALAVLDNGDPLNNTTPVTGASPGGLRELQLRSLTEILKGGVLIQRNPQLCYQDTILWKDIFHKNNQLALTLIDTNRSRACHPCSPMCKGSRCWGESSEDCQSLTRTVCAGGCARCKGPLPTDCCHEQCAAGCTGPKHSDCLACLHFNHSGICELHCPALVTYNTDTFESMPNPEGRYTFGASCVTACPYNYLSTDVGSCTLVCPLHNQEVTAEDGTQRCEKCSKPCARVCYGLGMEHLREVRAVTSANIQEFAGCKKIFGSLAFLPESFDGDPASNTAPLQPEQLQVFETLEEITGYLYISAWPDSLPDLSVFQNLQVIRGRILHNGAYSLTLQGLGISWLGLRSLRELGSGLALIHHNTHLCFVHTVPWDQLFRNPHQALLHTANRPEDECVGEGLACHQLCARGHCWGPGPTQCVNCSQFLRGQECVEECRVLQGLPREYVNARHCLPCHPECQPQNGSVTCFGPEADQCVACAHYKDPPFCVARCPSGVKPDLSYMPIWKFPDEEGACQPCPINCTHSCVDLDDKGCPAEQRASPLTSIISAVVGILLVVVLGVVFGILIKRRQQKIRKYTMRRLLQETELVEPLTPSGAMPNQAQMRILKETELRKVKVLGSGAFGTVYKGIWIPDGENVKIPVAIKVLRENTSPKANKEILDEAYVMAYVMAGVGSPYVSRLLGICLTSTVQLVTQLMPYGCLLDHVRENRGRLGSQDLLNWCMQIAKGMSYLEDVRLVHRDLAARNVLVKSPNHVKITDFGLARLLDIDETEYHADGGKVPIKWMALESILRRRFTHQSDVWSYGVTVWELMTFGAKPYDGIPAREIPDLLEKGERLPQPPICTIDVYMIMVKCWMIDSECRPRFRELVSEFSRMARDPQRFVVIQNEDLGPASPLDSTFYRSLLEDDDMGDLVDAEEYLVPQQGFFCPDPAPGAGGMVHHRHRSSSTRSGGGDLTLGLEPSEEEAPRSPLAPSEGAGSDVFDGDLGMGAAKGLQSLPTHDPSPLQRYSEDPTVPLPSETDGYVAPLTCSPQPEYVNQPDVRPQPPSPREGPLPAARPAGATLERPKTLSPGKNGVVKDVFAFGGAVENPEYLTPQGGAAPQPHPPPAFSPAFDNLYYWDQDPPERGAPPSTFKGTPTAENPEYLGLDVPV

EGFR V3 = target: T4, EGFR V3 (Homo sapiens, UniProt P00533, DELINS30-297G); experiment: BaF3 cell proliferation assay (CellTiterGlo), EGFR V3; assay type: cell-based; details: BaF3 cells, 3 days
T4 construct: expressed in transfected cells; host or cells: BaF3 (murine pro-B) cells, retroviral transduction with pMXs-IRES-Blasticidin
Method in brief: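 BaF3 cells made IL-3-independent by retroviral expression of each EGFR or HER2 mutant were treated in triplicate with compound for 72 h. Viability was read by CellTiterGlo ATP luminescence and normalised to vehicle, and EC50 was fitted from dose-response curves.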

EGFR NPH = target: T5, EGFR NPH (Homo sapiens, UniProt P00533, INS773NPH); experiment: BaF3 cell proliferation assay (CellTiterGlo), EGFR NPH; assay type: cell-based; details: Table A; BaF3 cells, 3 days
T5 construct: expressed in transfected cells; host or cells: BaF3 (murine pro-B) cells, retroviral transduction with pMXs-IRES-Blasticidin
Experimental: as §1, §2, §3

HER2 S310F = target: T6, HER2 S310F (Homo sapiens, UniProt P04626, S310F); experiment: BaF3 cell proliferation assay (CellTiterGlo), HER2 S310F; assay type: cell-based; details: Table A; BaF3 cells, 3 days
T6 construct: expressed in transfected cells; host or cells: BaF3 (murine pro-B) cells
T6 sequence (P04626 23-1255 S310F): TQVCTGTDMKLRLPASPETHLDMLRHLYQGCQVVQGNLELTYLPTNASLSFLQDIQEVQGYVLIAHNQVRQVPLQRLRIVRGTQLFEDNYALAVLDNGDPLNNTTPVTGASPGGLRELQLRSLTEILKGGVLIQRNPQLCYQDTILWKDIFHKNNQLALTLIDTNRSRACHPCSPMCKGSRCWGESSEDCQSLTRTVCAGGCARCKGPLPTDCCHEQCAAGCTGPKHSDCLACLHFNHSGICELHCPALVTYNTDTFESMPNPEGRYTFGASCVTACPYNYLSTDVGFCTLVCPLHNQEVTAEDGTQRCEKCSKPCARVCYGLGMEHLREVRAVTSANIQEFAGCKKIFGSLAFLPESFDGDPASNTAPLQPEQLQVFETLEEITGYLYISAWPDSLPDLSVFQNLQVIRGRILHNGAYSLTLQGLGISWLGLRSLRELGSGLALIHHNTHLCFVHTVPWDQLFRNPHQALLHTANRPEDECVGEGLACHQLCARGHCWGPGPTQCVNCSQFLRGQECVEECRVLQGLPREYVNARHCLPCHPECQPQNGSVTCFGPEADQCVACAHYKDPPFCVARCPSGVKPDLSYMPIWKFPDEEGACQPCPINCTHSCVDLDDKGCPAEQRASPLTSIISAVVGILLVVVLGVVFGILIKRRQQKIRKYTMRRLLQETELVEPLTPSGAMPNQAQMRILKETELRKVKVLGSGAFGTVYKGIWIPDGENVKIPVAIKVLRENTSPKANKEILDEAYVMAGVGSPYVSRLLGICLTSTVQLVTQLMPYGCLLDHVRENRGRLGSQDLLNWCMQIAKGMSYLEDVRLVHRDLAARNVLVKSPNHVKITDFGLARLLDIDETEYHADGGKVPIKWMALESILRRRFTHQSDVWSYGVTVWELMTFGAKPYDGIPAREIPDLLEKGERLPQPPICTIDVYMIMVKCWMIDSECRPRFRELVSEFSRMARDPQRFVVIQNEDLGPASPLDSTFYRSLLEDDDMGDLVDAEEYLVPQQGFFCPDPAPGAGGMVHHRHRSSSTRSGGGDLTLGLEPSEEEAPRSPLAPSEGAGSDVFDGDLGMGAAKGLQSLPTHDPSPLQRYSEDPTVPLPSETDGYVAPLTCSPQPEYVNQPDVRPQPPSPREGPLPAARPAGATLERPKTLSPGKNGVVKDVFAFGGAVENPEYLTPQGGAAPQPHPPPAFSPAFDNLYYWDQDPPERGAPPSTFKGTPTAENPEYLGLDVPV

EGFR A289V = target: T7, EGFR A289V (Homo sapiens, UniProt P00533, A289V); experiment: BaF3 cell proliferation assay (CellTiterGlo), EGFR A289V; assay type: cell-based; details: Table B; BaF3 cells, 3 days
T7 construct: expressed in transfected cells; host or cells: BaF3 (murine pro-B) cells, retroviral transduction with pMXs-IRES-Blasticidin
Experimental: as §1, with “The mixture was incubated at room temperature for 5 min and then added to Optimem containing transfection reagent Lipofectamine (11668, Invitrogen) and incubated for 20 minutes. Mixture was then added dropwise to HEK 293T cells. The next day the medium was replaced with fresh culture medium and retrovirus was harvested @ 24 and 48 hrs.” left out
as §3, with “To determine the effect of drug on cell proliferation, cells incubated for 3 days in the presence of vehicle control or test drug at varying concentrations.” left out, “Comparison of cell number on day 0 versus 72 hours post drug treatment was used to plot dose-response curves.” left out

EGFR V6 = target: T8, EGFR V6 (Homo sapiens, UniProt P00533, DEL434-544); experiment: BaF3 cell proliferation assay (CellTiterGlo), EGFR V6; assay type: cell-based; details: Table B; BaF3 cells, 3 days
T8 construct: expressed in transfected cells; host or cells: BaF3 (murine pro-B) cells, retroviral transduction with pMXs-IRES-Blasticidin
Experimental: as §1, with “The mixture was incubated at room temperature for 5 min and then added to Optimem containing transfection reagent Lipofectamine (11668, Invitrogen) and incubated for 20 minutes. Mixture was then added dropwise to HEK 293T cells. The next day the medium was replaced with fresh culture medium and retrovirus was harvested @ 24 and 48 hrs.” left out
as §3, with “To determine the effect of drug on cell proliferation, cells incubated for 3 days in the presence of vehicle control or test drug at varying concentrations.” left out, “Comparison of cell number on day 0 versus 72 hours post drug treatment was used to plot dose-response curves.” left out

EGFR V2 = target: T9, EGFR V2 (Homo sapiens, UniProt P00533, DEL545-627); experiment: BaF3 cell proliferation assay (CellTiterGlo), EGFR V2; assay type: cell-based; details: Table B; BaF3 cells, 3 days
T9 construct: expressed in transfected cells; host or cells: BaF3 (murine pro-B) cells, retroviral transduction with pMXs-IRES-Blasticidin
Experimental: as §1, with “The mixture was incubated at room temperature for 5 min and then added to Optimem containing transfection reagent Lipofectamine (11668, Invitrogen) and incubated for 20 minutes. Mixture was then added dropwise to HEK 293T cells. The next day the medium was replaced with fresh culture medium and retrovirus was harvested @ 24 and 48 hrs.” left out
as §3, with “To determine the effect of drug on cell proliferation, cells incubated for 3 days in the presence of vehicle control or test drug at varying concentrations.” left out, “Comparison of cell number on day 0 versus 72 hours post drug treatment was used to plot dose-response curves.” left out

EGFR G598V = target: T10, EGFR G598V (Homo sapiens, UniProt P00533, G598V); experiment: BaF3 cell proliferation assay (CellTiterGlo), EGFR G598V; assay type: cell-based; details: Table B; BaF3 cells, 3 days
T10 construct: expressed in transfected cells; host or cells: BaF3 (murine pro-B) cells, retroviral transduction with pMXs-IRES-Blasticidin
Experimental: as §1, with “The mixture was incubated at room temperature for 5 min and then added to Optimem containing transfection reagent Lipofectamine (11668, Invitrogen) and incubated for 20 minutes. Mixture was then added dropwise to HEK 293T cells. The next day the medium was replaced with fresh culture medium and retrovirus was harvested @ 24 and 48 hrs.” left out
as §3, with “To determine the effect of drug on cell proliferation, cells incubated for 3 days in the presence of vehicle control or test drug at varying concentrations.” left out, “Comparison of cell number on day 0 versus 72 hours post drug treatment was used to plot dose-response curves.” left out

SMILES	median OS (mOS) (GBM tumors)	median PFS (mPFS) (GBM tumors)	pIC50 (EGFR SVD)	pIC50 (EGFR wt; Table A)	pIC50 (HER2 YVMA)	pIC50 (EGFR V3; Table A)	pIC50 (EGFR NPH)	pIC50 (HER2 S310F)	pIC50 (EGFR A289V)	pIC50 (EGFR V6)	pIC50 (EGFR wt; Table B)	pIC50 (EGFR V3; Table B)	pIC50 (EGFR V2)	pIC50 (EGFR G598V)
C#Cc1cccc(Nc2ncnc3cc(OCCOC)c(OCCOC)cc23)c1 [erlotinib]	8.6 months	2.8 months												
C=CC(=O)Nc1cc2c(Nc3cccc(Cl)c3F)ncnc2cc1C#C[C@@]1(C)CCN(C)C1 [Compound 2, (R)—N-(4-((3-chloro-2-fluorophenyl)amino)-7-((1,3-dimethylpyrrolidin-3-yl)ethynyl)quinazolin-6-yl)acrylamide]			6.30 to 7.00	6.30 to 7.00	6.30 to 7.00	≥ 7.30	7.00 to 7.30	7.00 to 7.30						
C=CC(=O)Nc1cc2c(Nc3cccc(Cl)c3F)ncnc2cc1C#C[C@]1(C)CCN(C)C1 [Compound 3, (S)—N-(4-((3-chloro-2-fluorophenyl)amino)-7-((1,3-dimethylpyrrolidin-3-yl)ethynyl)quinazolin-6-yl)acrylamide]			6.30 to 7.00	7.00 to 7.30	6.30 to 7.00	≥ 7.30	7.00 to 7.30	7.00 to 7.30						
CN1C[C@H]2C[C@@]2(C#Cc2cc3ncnc(Nc4cccc(Cl)c4F)c3cc2NC(=O)/C=C/CN2CCOCC2)C1 [Compound 37, (E)-N-(4-((3-chloro-2-fluorophenyl)amino)-7-(((1R,5S)-3-methyl-3-azabicyclo[3.1.0]hexan-1-yl)ethynyl)quinazolin-6-yl)-4-morpholinobut-2-enamide]				≥ 7.30	6.30 to 7.00	≥ 7.30		6.30 to 7.00	≥ 8.00	≥ 8.00	7.30 to 7.60	7.60 to 8.00	≥ 8.00	≥ 8.00
C=CC(=O)Nc1cc2c(Nc3cccc(Cl)c3F)ncnc2cc1C#CC1(C)CCN(C)C1 (stereo not drawn) [Compound 1, N-(4-((3-chloro-2-fluorophenyl)amino)-7-((1,3-dimethylpyrrolidin-3-yl)ethynyl)quinazolin-6-yl)acrylamide]			6.30 to 7.00	7.00 to 7.30	6.30 to 7.00	≥ 7.30	7.00 to 7.30	7.00 to 7.30						
